Where a SMILES comes first, the peptide text is derived from it. [ ]: non-standard residue; d: D form. βAla = NCCC(=O)O
Assays:
Type in all cases: in vitro ADME, human
Conditions in all cases: human, 24 h, LC-MS
[1] = Soluble peptide degradation, Cells condition (LC-MS)
Experimental: (§1) Most in vitro protease activity assays incubate the peptides or proteins of interest with a single protease in a buffered solution. However, the kinetics of protease activity in tissues are complex and highly regulated, and both the activity^[ [37] ^] and substrate specificity^[ [38] ^] of proteases can be modulated through association with other proteins.^[ [39] ^] Most MMP‐substrate peptides are also cleaved by multiple proteases,^[ [5] ^] and within the context of biomaterials, the most important factor is typically how the combined activity of all proteases, rather than the activity of any specific protease, modifies the local microenvironment versus the activity due to any individual enzyme. We synthesized peptides identified in the TAILS proteomic screen that were present on proteins that are known to be secreted or found on the cell membrane, pooled them, and added them either to cell culture media on top of cells, the “Cells” condition, or conditioned media lacking cells, the “Media” condition (Figure 2A). The fraction of peptides remaining after 24 h in each condition was then quantified using LC‐MS. Soluble proteases should be present in both conditions, however, membrane‐type proteases should primarily be found in the samples containing cells and not the conditioned media samples. A key benefit of this approach is that it surveys the total functional proteolytic activity, including the effects of inhibitors and co‐factors, and quantifies the degradation rate of soluble peptides by the complete secretome of different cell types.
(§2) hUVECs (75000 per well) or hMSCs (36000 per well) were seeded into a 48 well plate, and 500 µL media was added to the wells. […] The peptide libraries were dissolved at a stock solution of 10 mM total peptide content. For libraries containing 38 peptides, 95 µL of the stock solution was added to each well; for libraries with 19 peptides, 47.5 µL was added to each well, and media was taken at 0 and 24 h. Add 4 µL of acetic acid to all collected media in the LC‐MS plates and store them in a −80 °C freezer to prevent further proteolytic degradation. From each sample, 10 µL of crude solution was introduced by the LC‐MS through a Thermo Scientific Vanquish LC System (Thermo Fisher Scientific), which outputted to a Thermo Scientific LTQ XL Linear Ion Trap Mass Spectrometer (Thermo Fisher Scientific). The sampled mixture was trapped on a column (ProntoSIL C18 AQ, 120 Å, 3 µm, 2.0 x 50 mm HPLC Column, PN 0502F184PS030, MAC‐MOD Analytical Inc.). The samples were loaded onto the column with a solvent containing acetonitrile/water, 5:95 (v/v) containing 1% acetic acid at a flow rate of 300 µL min^−1 and held for 1 min. The sample was then eluted from the column with a linear gradient of 5–40% Solvent B (1% acetic acid in acetonitrile) at the same flow rate for 5 min. This was followed by a 1 min ramp up to 100% Solvent B, where it was re‐equilibrated with Solvent A (1% acetic acid) to 5% solvent B over the course of 1 min and held there for 2 min. The column temperature was kept at a constant 29 °C, and the mass spectrometer was operated in positive ion mode. Using a Heated ESI, the Source Voltage was set to 4.1 kV, and the capillary temperature was 350 °C. For non‐library degradation studies, 2.5 µL of 10 mM peptide stock solution for each peptide was added.
In the MMP‐14 inhibitor study, the MMP‐14 inhibitor NSC 405 020 (Cayman Chemical Company) was dissolved in DMSO to make a 10 mM stock solution and stored in −20 °C freezer. 0.5 µL MMP‐14 inhibitor stock solution was added to each well to achieve a 10 µM final concentration.
For all degradation studies using soluble peptides, a non‐proteolytically degradable NH2‐βFβAβAβAβAβAβA‐amide (βFβA6) peptide, where βF is β‐phenylalanine and βA is β‐alanine, was added at a 50 µM concentration and used as an internal standard. Peptide degradation ratios were measured by LC‐MS and analyzed by Xcalibur. […]

[2] = Soluble peptide degradation, Media condition (cell-conditioned media, LC-MS)
Experimental: as §1, §2
(§3) To assess the activity of the conditioned media, the media were divided into two equal portions. One portion was used for a standard degradation study, while the other was cultured for an additional 24 h before the PanMMP and KLVADLMASAE were added. After 24 h of incubation, the media were collected for further analysis. To assess the impact of recombinant MMP‐14 on PanMMP and KLVADLMASAE, recombinant MMP‐14 (antibodies.com) was dissolved in the media at a concentration of 0.5 nM. The remaining steps followed the standard degradation study protocol. […]

[3] = as above; remark: listed apart in the source
Experimental: as §1, §2, §3

[4] = hMSCs in culture with fresh media (Cells condition), Figure 3B heatmap, split-and-pool libraries KLVADX1X2ASAE (19 or 38 peptides per library) in media on hMSCs, ratio to βFβA6, N = 2, read-out: Fraction of peptide remaining after 24 hours: hMSC Cells
[5] = hUVECs in culture with fresh media (Cells condition), Figure 3B heatmap, split-and-pool libraries KLVADX1X2ASAE in media on hUVECs, ratio to βFβA6, N = 2, read-out: Fraction of peptide remaining after 24 hours: hUVEC Cells
[6] = hMSC-conditioned media without cells (Media condition), Figure 3B heatmap, split-and-pool libraries KLVADX1X2ASAE in hMSC-conditioned media without cells, ratio to βFβA6, N = 2, read-out: Fraction of peptide remaining after 24 hours: hMSC Media
[7] = hUVEC-conditioned media without cells (Media condition), Figure 3B heatmap, split-and-pool libraries KLVADX1X2ASAE in hUVEC-conditioned media without cells, ratio to βFβA6, N = 2, read-out: Fraction of peptide remaining after 24 hours: hUVEC Media
[8] = hMSCs in culture with fresh media (Cells condition), Figure 2B heatmap, pooled TAILS-derived soluble peptides (Ac-βAla N-terminus, βAla-amide C-terminus) in media on hMSCs (36000 per well, 48 well plate, 500 µL), ratio to βFβA6 internal standard, 24 h / 0 h, N = 5, read-out: Fraction of peptide remaining at 24 hours: hMSC Cells
[9] = hUVECs in culture with fresh media (Cells condition), Figure 2B heatmap, pooled TAILS-derived soluble peptides in media on hUVECs (75000 per well, 48 well plate, 500 µL), ratio to βFβA6 internal standard, 24 h / 0 h, N = 5, read-out: Fraction of peptide remaining at 24 hours: hUVEC Cells
[10] = Figure 2B heatmap, pooled TAILS-derived soluble peptides in 24 h hMSC-conditioned media without cells, ratio to βFβA6 internal standard, 24 h / 0 h, N = 5, read-out: Fraction of peptide remaining at 24 hours: hMSC Media
[11] = Figure 2B heatmap, pooled TAILS-derived soluble peptides in 24 h hUVEC-conditioned media without cells, ratio to βFβA6 internal standard, 24 h / 0 h, N = 5, read-out: Fraction of peptide remaining at 24 hours: hUVEC Media

| remaining at 24 h [1, 8] [%] | remaining at 24 h [1, 9] [%] | remaining at 24 h [2, 10] [%] | remaining at 24 h [3, 11] [%] | SMILES | also measured |
| --- | --- | --- | --- | --- | --- |
| 89 |  | 99 | 102 | CC(=O)NCCC(=O)N[C@@H](CCC(=O)O)C(=O)N[C@@H](CCC(=O)O)C(=O)N[C@@H](CO)C(=O)N[C@@H](CO)C(=O)N[C@@H](Cc1c[nH]c2ccccc12)C(=O)NCC(=O)NCC(=O)N[C@@H](CO)C(=O)N1CCC[C@H]1C(=O)N[C@@H](CO)C(=O)N1CCC[C@H]1C(=O)N[C@H](C(=O)N[C@@H](CCCNC(=N)N)C(=O)NCCC(N)=O)C(C)C [EESSWGGSPSPVR] (Ac-[βAla]EESSWGGSPSPVR[βAla]-NH2) |  |
| 22 | 70 | 78 |  | CSCC[C@H](NC(=O)[C@H](CCC(=O)O)NC(=O)CNC(=O)[C@H](Cc1ccccc1)NC(=O)[C@H](CO)NC(=O)[C@H](Cc1ccc(O)cc1)NC(=O)[C@@H](NC(=O)[C@H](CCC(=O)O)NC(=O)CCNC(C)=O)C(C)C)C(=O)N1CCC[C@H]1C(=O)N[C@@H](Cc1c[nH]c2ccccc12)C(=O)NCCC(N)=O [EVYSFGEMPW] (Ac-[βAla]EVYSFGEMPW[βAla]-NH2) |  |

Second part, the molecule before the results:

| SMILES | remaining at 24 h [1, 8] [%] | remaining at 24 h [1, 9] [%] | remaining at 24 h [2, 10] [%] | remaining at 24 h [3, 11] [%] | also measured |
| --- | --- | --- | --- | --- | --- |
| CSCC[C@H](NC(=O)[C@H](CC(=O)O)NC(=O)[C@H](C)NC(=O)[C@@H](NC(=O)[C@H](CC(C)C)NC(=O)[C@H](CCCCN)NC(=O)CCNC(C)=O)C(C)C)C(=O)N[C@@H](C)C(=O)N[C@@H](C)C(=O)N[C@@H](CO)C(=O)N[C@@H](C)C(=O)N[C@@H](CCC(=O)O)C(=O)NCCC(N)=O [Met-Ala] (Ac-[βAla]KLVADMAASAE[βAla]-NH2) |  |  |  |  | remaining at 24 h [1, 4]: 38%; remaining at 24 h [1, 5]: 88%; remaining at 24 h [2, 6]: 61%; remaining at 24 h [3, 7]: 97% |
| CC(=O)NCCC(=O)N[C@@H](CC(C)C)C(=O)N[C@@H](C)C(=O)N[C@@H](CC(C)C)C(=O)N[C@@H](CCC(=O)O)C(=O)N[C@@H](C)C(=O)N[C@@H](CCCNC(=N)N)C(=O)N[C@H](C(=O)N[C@H](C(=O)N[C@@H](CC(=O)O)C(=O)N[C@@H](CC(C)C)C(=O)NCCC(N)=O)[C@@H](C)O)[C@@H](C)O [LALEARTTDL] (Ac-[βAla]LALEARTTDL[βAla]-NH2) | 68 | 94 | 86 | 104 |  |
| CC(=O)NCCC(=O)N[C@@H](CCCCN)C(=O)N[C@@H](CC(C)C)C(=O)N[C@H](C(=O)N[C@@H](C)C(=O)N[C@@H](CC(=O)O)C(=O)N[C@@H](CC(=O)O)C(=O)N[C@@H](CCC(N)=O)C(=O)N[C@@H](C)C(=O)N[C@@H](CO)C(=O)N[C@@H](C)C(=O)N[C@@H](CCC(=O)O)C(=O)NCCC(N)=O)C(C)C [Asp-Gln] (Ac-[βAla]KLVADDQASAE[βAla]-NH2) |  |  |  |  | remaining at 24 h [1, 4]: 39%; remaining at 24 h [1, 5]: 84%; remaining at 24 h [2, 6]: 75%; remaining at 24 h [3, 7]: 102% |
| CC(=O)NCCC(=O)N[C@@H](CCCCN)C(=O)N[C@@H](CC(C)C)C(=O)N[C@H](C(=O)N[C@@H](C)C(=O)N[C@@H](CC(=O)O)C(=O)N[C@@H](CC(N)=O)C(=O)N1CCC[C@H]1C(=O)N[C@@H](C)C(=O)N[C@@H](CO)C(=O)N[C@@H](C)C(=O)N[C@@H](CCC(=O)O)C(=O)NCCC(N)=O)C(C)C [Asn-Pro] (Ac-[βAla]KLVADNPASAE[βAla]-NH2) |  |  |  |  | remaining at 24 h ([1]; cells or culture medium, Figure 3B heatmap, split-and-pool libraries KLVADX1X2ASAE (19 or 38 peptides per library) in media on hMSCs, ratio to βFβA6, N = 2, read-out: Fraction of peptide remaining after 24 hours: hMSC Cells): 54%; remaining at 24 h ([1]; cells or culture medium, Figure 3B heatmap, split-and-pool libraries KLVADX1X2ASAE in media on hUVECs, ratio to βFβA6, N = 2, read-out: Fraction of peptide remaining after 24 hours: hUVEC Cells): 91%; remaining at 24 h ([2]; cells or culture medium, Figure 3B heatmap, split-and-pool libraries KLVADX1X2ASAE in hMSC-conditioned media without cells, ratio to βFβA6, N = 2, read-out: Fraction of peptide remaining after 24 hours: hMSC Media): 84%; remaining at 24 h ([3]; cells or culture medium, Figure 3B heatmap, split-and-pool libraries KLVADX1X2ASAE in hUVEC-conditioned media without cells, ratio to βFβA6, N = 2, read-out: Fraction of peptide remaining after 24 hours: hUVEC Media): 98% |
| CC[C@H](C)[C@H](NC(=O)[C@H](CCC(=O)O)NC(=O)[C@H](C)NC(=O)[C@H](CC(C)C)NC(=O)[C@H](C)NC(=O)[C@H](CC(=O)O)NC(=O)CCNC(C)=O)C(=O)N[C@@H](CC(C)C)C(=O)N[C@@H](CCC(N)=O)C(=O)N[C@@H](C)C(=O)N[C@@H](CC(N)=O)C(=O)N[C@@H](CC(=O)O)C(=O)NCCC(N)=O [DALAEILQAND] (Ac-[βAla]DALAEILQAND[βAla]-NH2) | 81 | 84 | 90 |  |  |
| CC(=O)NCCC(=O)N[C@@H](CCCCN)C(=O)N[C@@H](C)C(=O)N1CCC[C@H]1C(=O)NCC(=O)NCC(=O)N[C@@H](CCCCN)C(=O)N[C@@H](C)C(=O)N[C@@H](C)C(=O)NCC(=O)N1CCC[C@H]1C(=O)N[C@@H](C)C(=O)NCCC(N)=O [KAPGGKAAGPA] (Ac-[βAla]KAPGGKAAGPA[βAla]-NH2) | 78 | 71 | 95 | 88 |  |
| CC(=O)NCCC(=O)N[C@@H](C)C(=O)N[C@@H](CO)C(=O)N[C@@H](C)C(=O)N1CCC[C@H]1C(=O)N[C@@H](C)C(=O)N[C@@H](CCCNC(=N)N)C(=O)N1CCC[C@H]1C(=O)N[C@@H](C)C(=O)N[C@@H](CC(C)C)C(=O)N[C@@H](CO)C(=O)NCCC(N)=O [ASAPARPALS] (Ac-[βAla]ASAPARPALS[βAla]-NH2) | 88 |  | 96 | 94 |  |
